The values that follow come from patent US20250250298A1, “ONCOLYTIC PEPTIDE AND USE THEREOF” (Rise Biopharmaceuticals Inc., priority 2022, published 2025).

SMILES strings stand for the structures. Where a SMILES comes first, the peptide text is derived from it.

One experiment concerns HFW (Human fibroblast). Briefly: MTT cytotoxicity, HFW. The format is cell-based. To be noted: 24 hours incubation. The source says: (§1) The MTT assay is a colorimetric method for measuring the activity of enzymes in living cells that reduces Thiazolyl blue tetrazolium bromide (MTT) to formazan dyes showing a purple color. In this embodiment, a colorimetric 3-(4.5-dimethylthiazol-2-yl)-2.5-diphenyltetrazodium bromide (MTT) viability assay was used to assess the in vitro cytotoxicity of oncolytic peptides.
(§2) The half inhibition concentration (IC50) is the concentration required by the oncolytic peptides to reach fifty percent inhibition. In one embodiment, the oncolytic peptides were used for IC50 test via MTT colorimetric assay.
(§3) Human lung cancer lines PC9 and A549 and murine pancreatic cancer cell line Panc02 were cultured in RPMI medium supplemented with 10% fetal bovine serum and antibiotic in this embodiment. Additionally, murine hepatoma cell line Hepa 1-6, murine melanoma cell line B16-F10, murine fibrosarcoma cell line MN-11, murine mammary cancer cell line E0771 and human diploid fibroblast (HFW) were cultured in DMEM medium supplemented with 10% fetal bovine serum and antibiotic. Cells were cultured in a humidified incubator containing 5% CO2 at 37° C.
(§4) All cancer cell lines were seeded in a 96-well plate with a concentration of 5000-8000 cells/100 μl/well and incubated for 24 hrs. After medium was removed, 100 μl fresh medium containing peptide (ranging from 50 μM to 0.8 μM) was added to the wells. Following 24 hours incubation, fresh medium with MTT (0.5 mg/ml) was replaced and incubated for 3 hours. After medium/MTT was removed, DMSO was added at 100 μl for dissolving the formazan crystal. Cell survival rate was calculated by measuring the absorbance at 540 nm using a Multi-labeled Microplate Reader (Sunrise™, TECAN).

The subject of experiment [1] is HUVEC (Human Umbilical Vein Endothelial (Cell)). Briefly: MTT cytotoxicity, HUVEC. The experiment is classed as cell-based. The conditions noted are these: 24 hours incubation.
Text: as §1, §2, §4

Experiment [2] relates to EO771 (Murine mammary adenocarcinoma). Briefly: MTT cytotoxicity, EO771. The conditions noted are these: EO771, 24 hours incubation. The format is cell-based.
Text: as §1, §2, §3, §4

Experiment [3] has as its system PC9 (Human non-small cell lung cancer cell). In words: MTT cytotoxicity, PC9. The experiment is classed as cell-based. The conditions noted are these: PC9, 24 hours incubation.
Text: as §1, §2, §3, §4

For experiment [4], the system named is OECM-1 (Human oral cancer cell). In words: MTT cytotoxicity, OECM-1. To be noted: OECM-1, 24 hours incubation. The experiment is classed as cell-based.
Text: as §1, §2, §4

For a further experiment, the system named is MN-11 fibrosarcoma. The experiment is classed as in vivo. To be noted: MN-11 tumor-bearing C57BL/6 mice. The protocol:
FIGS. 4A-4B are schematic diagrams of MN-11 fibrosarcoma experiments. FIG. 4A: The right flank of the mouse was administrated with SEQ ID NO:9, and the left flank of the mouse was untreated (tumor only). […] Palpable tumors (100 mm^3) were injected (IT.) with single doses of SEQ ID NO:9 dissolved in PBS (1.0 mg peptide/50 μl PBS) once a day for 5 consecutive days, and the vehicle control was saline only (0.9% NaCl).
(§5) Female C57BL/6 mice (4- to 6-week old) as allogeneic model animals were purchased from BioLASCO Taiwan Co., Ltd. and maintained in a specific pathogen-free and controlled environment. During the experiments, female mice, weighing 18.0-24.0 g each, were kept in groups of 4 to 6 animals per cage under climate-controlled conditions, with 12 h light/dark cycles and an ambient temperature. The mice were housed in an enriched individually ventilated cage (IVC) system with free access to standard rodent chow and water ad libitum. The animals were anesthetized during the experimental procedures with 2.5% isoflurane gas. The animals were monitored daily. […]
(§6) Tumor size was measured 3 times a week using a caliper, and the volume of tumors was calculated using the following formula: Tumor size (mm^3)=0.5×(width^2×length). […] The survival rates of tumor-bearing mice were observed and recorded continuously until all animals died. […]

For a further experiment, the system named is E0771 breast cancer. The format is in vivo. The conditions noted are these: E0771 tumor-bearing C57BL/6 mice. The protocol:
FIGS. 7A-7B are schematic diagrams of E0771 breast cancer experiments. FIG. 7A: The right flank of the mouse was administrated with SEQ ID NO:9. […] (2×10^5E0771 cells per mouse/50 μl RPMI-1640). Palpable tumors (75 mm^3) were injected (IT.) with single doses of SEQ ID NO:9 dissolved in PBS (1.0 mg peptide/50 μl PBS) once a day for 5 consecutive days, and the vehicle control was saline only (0.9% NaCl).
as §5, §6

[5] abbreviates: IT. 1.0 mg once a day for 5 days, vs untreated controls.
[6] abbreviates: IT. 1.0 mg peptide/50 μl PBS once a day for 5 consecutive days, vs saline control.

On to `CC(C)C[C@H](NC(=O)[C@H](Cc1ccc2ccccc2c1)NC(=O)[C@H](CCCCN)NC(=O)[C@H](CC(C)C)NC(=O)[C@H](Cc1c[nH]c2ccccc12)NC(=O)[C@H](CCCCN)NC(=O)[C@H](CCCNC(=N)N)NC(=O)[C@H](Cc1c[nH]c2ccccc12)NC(=O)[C@H](CCCNC(=N)N)NC(=O)[C@H](CCCNC(=N)N)NC(=O)[C@H](CCCCN)NC(=O)[C@H](CCCCN)NC(=O)[C@H](CCCCN)NC(=O)[C@@H](N)CCCCN)C(=O)N[C@@H](C)C(=O)N[C@@H](CCCCN)C(N)=O` [SEQ ID NO: 9, KKKK-RR-WRK-WLK-Nal-LA-K-NH2] (HELM PEPTIDE1{K.K.K.K.R.R.W.R.K.W.L.K.[O=C([C@H](Cc1ccc2ccccc2c1)N[*:1])[*:2]].L.A.K.[am]}$$$$V2.0; N-terminus assumed), for which the half-maximal inhibitory concentration (IC50) in the experiment on HFW (Human fibroblast) was 3.38 µM; in experiment [1] it was 6.32 µM; in experiment [2] it was 2.01 µM; in experiment [3], 3.02 µM; in experiment [4], 6.36 µM. The “Survival (lifespan)” value in the experiment on MN-11 fibrosarcoma (setting [5]) and in the experiment on E0771 breast cancer (setting [5]) was “extended the lifespan” in each case. The “Tumor growth, treated tumor (right side)” value with MN-11 fibrosarcoma (setting [6]) is given as “significantly inhibited unilateral (right side) tumor growth”. The “Tumor growth, treated tumor (right flank)” value with E0771 breast cancer (setting [6]) is “significantly inhibited tumor growth”.

In general, IC50 refers to the concentration at which inhibition is half-maximal. A low value points to greater potency in that assay.
